How the values were obtained:
AMPK 111 = target: T1, AMPK 111 (Homo sapiens, UniProt Q13131+Q9Y478); test: Biochemical profiling of AMPK activators by AMPK111 (HTRF/TR-FRET assay, SAMS peptide, PP2A dephosphorylation protection); conditions: for EC50: phosphorylated AMPK 111 (α1β1δ1 as printed), 11 point dilution, duplicate, 4-parameter fit; for Emax: phosphorylated AMPK 111, maximal activation
T1 construct: open reading frames encoding the full-length α1, β1 and δ1 subunits of human AMPK; made in house; host or cells: E. coli BL21-CodonPlus (DE3)-RIPL, pET-14b
Procedure: (§1) The biochemical EC50 (half-maximal concentration required for full activation) of compounds for the activation of AMPK was evaluated by HTRF assay using LANCE Ultra ULight-Acetyl-CoA Carboxylase (SAMS) peptide (commercially available, Perkin Elmer catalog TRF0133-M).
Following a fifteen-minute room temperature incubation, 5 μL of 30 nM protein phosphatase PP2A (isolation detailed above) diluted in the assay buffer was added to the plate, to dephosphorylate pThr172 of AMPK. […] The reaction was terminated after 60 minutes incubation at room temperature, by the addition of 5 μL of stop and detection cocktail, which consisted of 1× Perkin Elmer Lance buffer (Perkin Elmer catalog number CR97-100), 40 mM EDTA (Thermo Fisher catalog number BP2482-100), and 2 nM Eu-anti-Acetyl CoA Carboxylase [pSer70] antibody (Perkin Elmer, TRF0208-M).

AMPK 221 = target: T2, AMPK 221 (Homo sapiens, UniProt O43741+P54646); test: Biochemical profiling of AMPK activators by AMPK221 (HTRF/TR-FRET assay, SAMS peptide, PP2A dephosphorylation protection); conditions: for EC50: phosphorylated AMPK 221 (α2β2δ1), 11 point dilution, duplicate, 4-parameter fit; for Emax: phosphorylated AMPK 221, maximal activation
T2 construct: open reading frames encoding the full-length α2, β2 and δ1 subunits of human AMPK; made in house; host or cells: E. coli BL21-CodonPlus (DE3)-RIPL, pET-14b
Procedure: as §1
The reaction was terminated after 60 minutes incubation at room temperature by the addition of 5 μL of stop and detection cocktail, which consisted of 1× Perkin Elmer Lance buffer (Perkin Elmer catalog number CR97-100), 40 mM EDTA (Thermo Fisher catalog number BP2482-100), and 2 nM Eu-anti-Acetyl CoA Carboxylase [pSer70] antibody (Perkin Elmer, TRF0208-M). Plates were spun at 1000 RPM, 10 seconds.

T2 sequence (P54646 whole entry): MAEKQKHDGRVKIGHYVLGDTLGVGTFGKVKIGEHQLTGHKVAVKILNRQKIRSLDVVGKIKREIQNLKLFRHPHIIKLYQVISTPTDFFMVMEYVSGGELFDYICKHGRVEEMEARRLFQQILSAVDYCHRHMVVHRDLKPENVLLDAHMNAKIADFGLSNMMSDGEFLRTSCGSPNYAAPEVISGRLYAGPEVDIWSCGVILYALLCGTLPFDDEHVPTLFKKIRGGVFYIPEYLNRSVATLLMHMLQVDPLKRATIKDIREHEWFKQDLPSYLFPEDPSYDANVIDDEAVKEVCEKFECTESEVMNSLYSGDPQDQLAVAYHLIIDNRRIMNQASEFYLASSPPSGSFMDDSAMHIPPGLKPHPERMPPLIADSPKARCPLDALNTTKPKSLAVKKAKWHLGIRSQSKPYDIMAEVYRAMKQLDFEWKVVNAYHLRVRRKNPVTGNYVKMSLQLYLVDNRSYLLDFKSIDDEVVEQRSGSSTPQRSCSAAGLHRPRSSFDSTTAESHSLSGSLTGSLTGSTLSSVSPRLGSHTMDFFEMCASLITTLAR
T2 sequence (O43741 whole entry): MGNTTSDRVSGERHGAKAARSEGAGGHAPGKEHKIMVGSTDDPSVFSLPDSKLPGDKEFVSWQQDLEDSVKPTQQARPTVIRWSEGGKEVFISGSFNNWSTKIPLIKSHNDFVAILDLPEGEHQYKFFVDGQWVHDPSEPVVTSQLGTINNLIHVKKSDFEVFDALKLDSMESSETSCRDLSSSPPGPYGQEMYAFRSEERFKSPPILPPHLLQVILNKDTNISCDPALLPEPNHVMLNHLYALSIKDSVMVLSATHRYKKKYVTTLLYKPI
T2 sequence (P54619 whole entry partner): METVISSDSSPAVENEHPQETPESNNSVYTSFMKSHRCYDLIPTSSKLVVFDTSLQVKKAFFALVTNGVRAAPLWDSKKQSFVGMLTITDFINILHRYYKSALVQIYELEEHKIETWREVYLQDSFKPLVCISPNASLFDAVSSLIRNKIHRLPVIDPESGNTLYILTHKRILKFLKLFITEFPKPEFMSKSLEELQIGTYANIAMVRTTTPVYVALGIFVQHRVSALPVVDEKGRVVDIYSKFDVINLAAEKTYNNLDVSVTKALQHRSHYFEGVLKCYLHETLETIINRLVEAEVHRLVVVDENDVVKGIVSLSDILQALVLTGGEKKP
T1 sequence (Q13131 whole entry): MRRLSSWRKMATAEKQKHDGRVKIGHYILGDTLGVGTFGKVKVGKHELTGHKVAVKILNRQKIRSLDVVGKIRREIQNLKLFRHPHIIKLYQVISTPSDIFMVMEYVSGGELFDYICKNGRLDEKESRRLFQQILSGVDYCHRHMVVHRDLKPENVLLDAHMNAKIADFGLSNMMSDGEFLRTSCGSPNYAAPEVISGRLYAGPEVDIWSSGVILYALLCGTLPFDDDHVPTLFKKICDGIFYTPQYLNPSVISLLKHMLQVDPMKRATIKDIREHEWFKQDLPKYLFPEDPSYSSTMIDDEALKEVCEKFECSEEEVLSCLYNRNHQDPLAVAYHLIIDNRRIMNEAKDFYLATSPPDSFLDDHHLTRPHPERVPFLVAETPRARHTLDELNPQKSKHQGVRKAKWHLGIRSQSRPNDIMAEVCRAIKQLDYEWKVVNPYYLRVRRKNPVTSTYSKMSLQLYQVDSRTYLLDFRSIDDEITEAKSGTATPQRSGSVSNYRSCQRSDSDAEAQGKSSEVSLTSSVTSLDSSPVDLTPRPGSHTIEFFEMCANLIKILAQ
T1 sequence (Q9Y478 whole entry): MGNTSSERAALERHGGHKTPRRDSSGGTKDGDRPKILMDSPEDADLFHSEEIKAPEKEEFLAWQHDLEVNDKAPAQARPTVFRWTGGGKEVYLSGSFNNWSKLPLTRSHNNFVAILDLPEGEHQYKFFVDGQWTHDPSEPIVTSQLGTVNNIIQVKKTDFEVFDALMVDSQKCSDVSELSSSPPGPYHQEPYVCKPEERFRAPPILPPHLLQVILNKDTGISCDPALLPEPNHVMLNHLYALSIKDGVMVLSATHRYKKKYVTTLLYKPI
T1 sequence (P54619 whole entry partner): as the sequence (P54619 whole entry partner) above

SMILES: O=C(O)CCc1n[nH]c2cc(Cl)c(-c3ccc(-c4ccc(F)c(F)c4O)cc3)cc12 [Example 71, 3-(6-chloro-5-(3′,4′-difluoro-2′-hydroxy-[1,1′-biphenyl]-4-yl)-1H-indazol-3-yl)propanoic acid]
- EC50 (AMPK 111): 279 nM
- Emax (AMPK 111): 73%
- EC50 (AMPK 221): 994 nM
- Emax (AMPK 221): 60%

SMILES: COc1c(Cl)ccc(-c2ccc(-c3cc4c(CCC(=O)O)n[nH]c4cc3Cl)cc2)c1O [Example 28, 3-(6-chloro-5-(4′-chloro-2′-hydroxy-3′-methoxy-[1,1′-biphenyl]-4-yl)-1H-indazol-3-yl)propanoic acid]
- EC50 (AMPK 111): 277 nM
- Emax (AMPK 111): 73%
- EC50 (AMPK 221): 136 nM
- Emax (AMPK 221): 63%

SMILES: CS(=O)(=O)c1ccc(-c2ccc(-c3cc4c(CCC(=O)O)n[nH]c4cc3Cl)cc2)cc1 [Example 44, 3-(6-chloro-5-(4′-(methylsulfonyl)-[1,1′-biphenyl]-4-yl)-1H-indazol-3-yl)propanoic acid]
- EC50 (AMPK 111): 85 nM
- Emax (AMPK 111): 79%
- EC50 (AMPK 221): 204 nM
- Emax (AMPK 221): 52%

SMILES: NC(c1ccc(-c2ccc(-c3cc4c(CCC(=O)O)n[nH]c4cc3Cl)cc2)c(O)c1)C(F)(F)F (centres unmarked) [Example 13, 3-(5-(4′-(1-amino-2,2,2-trifluoroethyl)-2′-hydroxy-[1,1′-biphenyl]-4-yl)-6-chloro-1H-indazol-3-yl)propanoic acid]
- EC50 (AMPK 111): 21 nM
- Emax (AMPK 111): 86%
- EC50 (AMPK 221): 69 nM
- Emax (AMPK 221): 67%

SMILES: COc1cccc(-c2ccc(-c3cc4c(CCC(=O)O)n[nH]c4cc3Cl)cc2)c1O [Example 2, 3-(6-Chloro-5-(2′-hydroxy-3′-methoxy-[1,1′-biphenyl]-4-yl)-1H-indazol-3-yl)propanoic acid]
- EC50 (AMPK 111): 29 nM
- Emax (AMPK 111): 80%
- EC50 (AMPK 221): 34 nM
- Emax (AMPK 221): 66%

SMILES: Cc1cc(C)c(-c2ccc(-c3cc4c(CCC(=O)O)n[nH]c4cc3Cl)cc2)c(O)c1 [Example 18, 3-(6-chloro-5-(2′-hydroxy-4′,6′-dimethyl-[1,1′-biphenyl]-4-yl)-1H-indazol-3-yl)propanoic acid]
- EC50 (AMPK 111): 12 nM
- Emax (AMPK 111): 84%
- EC50 (AMPK 221): 96 nM
- Emax (AMPK 221): 64%

SMILES: Cc1ccc(F)c(O)c1-c1ccc(-c2cc3c(CCC(=O)O)n[nH]c3cc2Cl)cc1 [Example 20, 3-(6-chloro-5-(3′-fluoro-2′-hydroxy-6′-methyl-[1,1′-biphenyl]-4-yl)-1H-indazol-3-yl)propanoic acid]
- EC50 (AMPK 111): 16 nM
- Emax (AMPK 111): 82%
- EC50 (AMPK 221): 97 nM
- Emax (AMPK 221): 61%

SMILES: COc1cc(O)c(-c2ccc(-c3cc4c(CCC(=O)O)n[nH]c4cc3Cl)cc2)c(Cl)c1 [Example 49, 3-(6-chloro-5-(2′-chloro-6′-hydroxy-4′-methoxy-[1,1′-biphenyl]-4-yl)-1H-indazol-3-yl)propanoic acid]
- EC50 (AMPK 111): 96 nM
- Emax (AMPK 111): 74%
- EC50 (AMPK 221): 325 nM
- Emax (AMPK 221): 61%

SMILES: COc1ccc(C)c(-c2ccc(-c3cc4c(CCC(=O)O)n[nH]c4cc3Cl)cc2)c1O [Example 62, 3-(6-chloro-5-(2′-hydroxy-3′-methoxy-6′-methyl-[1,1′-biphenyl]-4-yl)-1H-indazol-3-yl)propanoic acid]
- EC50 (AMPK 111): 25 nM
- Emax (AMPK 111): 72%
- EC50 (AMPK 221): 14 nM
- Emax (AMPK 221): 57%

SMILES: Cc1cncc(O)c1-c1ccc(-c2cc3c(CCC(=O)O)n[nH]c3cc2Cl)cc1 [Example 27, 3-(6-chloro-5-(4-(3-hydroxy-5-methylpyridin-4-yl)phenyl)-1H-indazol-3-yl)propanoic acid]
- EC50 (AMPK 111): 7 nM
- Emax (AMPK 111): 87%
- EC50 (AMPK 221): 125 nM
- Emax (AMPK 221): 62%

SMILES: O=C(O)CCc1n[nH]c2cc(Cl)c(-c3ccc(-c4csc(CO)c4)cc3)cc12 [Example 58, 3-(6-chloro-5-(4-(5-(hydroxymethyl)thiophen-3-yl)phenyl)-1H-indazol-3-yl)propanoic acid]
- EC50 (AMPK 111): 215 nM
- Emax (AMPK 111): 76%
- EC50 (AMPK 221): 573 nM
- Emax (AMPK 221): 57%

SMILES: COc1ccc(-c2ccc(-c3cc4c(CCC(=O)O)n[nH]c4cc3Cl)cc2)c(O)c1OC [Example 52, 3-(6-chloro-5-(2′-hydroxy-3′,4′-dimethoxy-[1,1′-biphenyl]-4-yl)-1H-indazol-3-yl)propanoic acid]
- EC50 (AMPK 111): 6 nM
- Emax (AMPK 111): 85%
- EC50 (AMPK 221): 19 nM
- Emax (AMPK 221): 65%

SMILES: COc1ccc(C)c(-c2ccc(-c3cc4c(CCCC(=O)O)n[nH]c4cc3Cl)cc2)c1O [Example 78, 4-(6-chloro-5-(2′-hydroxy-3′-methoxy-6′-methyl-[1,1′-biphenyl]-4-yl)-1H-indazol-3-yl)butanoic acid]
- EC50 (AMPK 111): 93 nM
- Emax (AMPK 111): 78%
- EC50 (AMPK 221): 87 nM
- Emax (AMPK 221): 66%

SMILES: N#Cc1cc2[nH]nc(CCC(=O)O)c2cc1-c1ccc(-c2ccccc2O)cc1 [Example 35, 3-(6-cyano-5-(2′-hydroxy-[1,1′-biphenyl]-4-yl)-1H-indazol-3-yl)propanoic acid]
- EC50 (AMPK 111): 137 nM
- Emax (AMPK 111): 67%
- EC50 (AMPK 221): 198 nM
- Emax (AMPK 221): 47%

SMILES: CC(C)Oc1cccc(-c2ccc(-c3cc4c(CCC(=O)O)n[nH]c4cc3Cl)cc2)c1O [Example 37, 3-(6-chloro-5-(2′-hydroxy-3′-isopropoxy-[1,1′-biphenyl]-4-yl)-1H-indazol-3-yl)propanoic acid]
- EC50 (AMPK 111): 464 nM
- Emax (AMPK 111): 70%
- EC50 (AMPK 221): 205 nM
- Emax (AMPK 221): 52%

SMILES: CSc1ccc(-c2ccc(-c3cc4c(CCC(=O)O)n[nH]c4cc3Cl)cc2)c(O)c1 [Example 63, 3-(6-chloro-5-(2′-hydroxy-4′-(methylthio)-[1,1′-biphenyl]-4-yl)-1H-indazol-3-yl)propanoic acid]
- EC50 (AMPK 111): 281 nM
- Emax (AMPK 111): 56%
- EC50 (AMPK 221): 565 nM
- Emax (AMPK 221): 64%

SMILES: COc1ccc(-c2ccc(-c3cc4c(CCC(=O)O)n[nH]c4cc3Cl)cc2)c(O)c1 [Example 21, 3-(6-chloro-5-(2′-hydroxy-4′-methoxy-[1,1′-biphenyl]-4-yl)-1H-indazol-3-yl)propanoic acid]
- EC50 (AMPK 111): 151 nM
- Emax (AMPK 111): 65%
- EC50 (AMPK 221): 97 nM
- Emax (AMPK 221): 56%

SMILES: O=C(O)CCc1n[nH]c2cc(Cl)c(-c3ccc(-c4ccc5c(c4O)OCC5)cc3)cc12 [Example 68, 3-(6-chloro-5-(4-(7-hydroxy-2,3-dihydrobenzofuran-6-yl)phenyl)-1H-indazol-3-yl)propanoic acid]
- EC50 (AMPK 111): 29 nM
- Emax (AMPK 111): 71%
- EC50 (AMPK 221): 19 nM
- Emax (AMPK 221): 69%

SMILES: O=C(O)CCc1n[nH]c2cc(Cl)c(-c3ccc(-c4ccccc4)cc3)cc12 [Example 51, 3-(5-([1,1′-biphenyl]-4-yl)-6-chloro-1H-indazol-3-yl)propanoic acid]
- EC50 (AMPK 111): 312 nM
- Emax (AMPK 111): 71%
- EC50 (AMPK 221): 355 nM
- Emax (AMPK 221): 22%

SMILES: O=C(O)CCCc1n[nH]c2cc(Cl)c(-c3ccc(-c4ccccc4O)cc3)cc12 [Example 43, 4-(6-chloro-5-(2′-hydroxy-[1,1′-biphenyl]-4-yl)-1H-indazol-3-yl)butanoic acid]
- EC50 (AMPK 111): 51 nM
- Emax (AMPK 111): 80%
- EC50 (AMPK 221): 248 nM
- Emax (AMPK 221): 62%

SMILES: COc1cc(F)cc(-c2ccc(-c3cc4c(CCC(=O)O)n[nH]c4cc3Cl)cc2)c1O [Example 42, 3-(6-chloro-5-(5′-fluoro-2′-hydroxy-3′-methoxy-[1,1′-biphenyl]-4-yl)-1H-indazol-3-yl)propanoic acid]
- EC50 (AMPK 111): 291 nM
- Emax (AMPK 111): 68%
- EC50 (AMPK 221): 244 nM
- Emax (AMPK 221): 64%

SMILES: O=C(O)CCc1n[nH]c2cc(F)c(-c3ccc(-c4ccccc4O)cc3)cc12 [Example 33, 3-(6-fluoro-5-(2′-hydroxy-[1,1′-biphenyl]-4-yl)-1H-indazol-3-yl)propanoic acid]
- EC50 (AMPK 111): 301 nM
- Emax (AMPK 111): 57%
- EC50 (AMPK 221): 196 nM
- Emax (AMPK 221): 57%

SMILES: O=C(O)CCc1n[nH]c2cc(Cl)c(-c3ccc(-c4ccc(Cl)cc4O)cc3)cc12 [Example 64, 3-(6-chloro-5-(4′-chloro-2′-hydroxy-[1,1′-biphenyl]-4-yl)-1H-indazol-3-yl)propanoic acid]
- EC50 (AMPK 111): 203 nM
- Emax (AMPK 111): 76%
- EC50 (AMPK 221): 617 nM
- Emax (AMPK 221): 48%

SMILES: O=C(O)CCc1n[nH]c2cc(Cl)c(-c3ccc(-c4ccc(OC(F)F)cc4O)cc3)cc12 [Example 69, 3-(6-chloro-5-(4′-(difluoromethoxy)-2′-hydroxy-[1,1′-biphenyl]-4-yl)-1H-indazol-3-yl)propanoic acid]
- EC50 (AMPK 111): 480 nM
- Emax (AMPK 111): 73%
- EC50 (AMPK 221): 1150 nM
- Emax (AMPK 221): 58%

SMILES: COCc1ccc(-c2ccc(-c3cc4c(CCC(=O)O)n[nH]c4cc3Cl)cc2)c(O)c1 [Example 10, 3-(6-chloro-5-(2′-hydroxy-4′-(methoxymethyl)-[1,1′-biphenyl]-4-yl)-1H-indazol-3-yl)propanoic acid]
- EC50 (AMPK 111): 29 nM
- Emax (AMPK 111): 76%

— patent US20240336572A1, “SUBSTITUTED INDAZOLE PROPIONIC ACID DERIVATIVE COMPOUNDS AND USES THEREOF” (Pfizer Inc., priority 2023, published 2024)
